Like-named read-outs stand apart in the source and are kept apart here.
Assays:
[1] = test system: lipidic peroxidation of membrane lipids in rat hepatocytes (hepatic microsomal membranes); test: In vitro antioxidant activity (TBARS test); assay type: biochemical; details: read-out: Antioxidant activity IC50 μM (CL 95%)
Protocol: The antioxidant properties of compounds (6) (disclosed in example 1) and compound (23) (disclosed in example 19) and reference antioxidant compounds were assessed after NADPH-induced lipidic peroxidation of membrane lipids in rat hepatocytes using the detection of 2-thiobarbituric acid reactive substances (TBARS) by visible spectroscopy.
Hepatic microsomal membranes from male Wistar rats (200-250 g) were prepared by differential centrifugation (8000 g, 20 min; 120000 g, 1 h) in a HEPES/sucrose buffer (10 mM, 250 mM, pH 7.4) and stored at −80° C. Incubation was performed at 37° C. in a Tris-HCl/KCl (100 mM/150 mM, pH 7.4) containing microsomal membranes (2 mg prot/mL), sodium ascorbate (100 μM), and DMSO solutions of the tested compounds. Lipid peroxidation was initiated by adding ADP-FeCl3 and NADPH (Method A) or 2.5 μM FeSO4 (Method B) (as described by Boschi D. et al., J. Med. Chem. 2006, 49:2886-2897). Aliquots were taken from the incubation mixture at 5, 15, and 30 min and treated with trichloroacetic acid (TCA) 10% w/v. Lipid peroxidation was assessed by spectrophotometric (543 nm) determination of the TBARS consisting mainly of malondialdehyde (MDA). TBARS concentrations (expressed in nmol/mg protein) were obtained by interpolation with a MDA standard curve. The antioxidant activity of tested compounds was evaluated as the percent inhibition of TBARS production with respect to control samples, using the values obtained after 30 min of incubation. IC50 values were calculated by nonlinear regression analysis.

[2] = test system: isolated aortas from rats; test: Ex vivo tolerance evaluation, vascular response of isolated rat aortas; assay type: cell-based; details: for EC50 at 30 mg/kg: Rattus norvegicus, read-out: EC50 (μM), vascular response to 5-ISMN
Protocol: (§1) Thoracic aortas from male New Zealand rabbits or male Sprague Dawley (SD) were used. The aortas were placed immediately in Krebs-HEPES buffer (pH 7.4; composition mM: NaCl 130.0, KCl 3.7, NaHCO3 14.9, KH2PO4 1.2, MgSO4.7H2O 1.2, Glucose 11.0, HEPES 10.0, CaCl2.2H2O 1.6). Connective tissue was removed and aortas were cut into ring segments (4-5 mm in length). Each ring was placed in a 5 mL tissue bath filled with Krebs-HEPES buffer (37° C.) aerated with 95% O2 and 5% CO2 and was attached to a force transducer (Grass FT03), connected to a BIOPAC MP150 System for measurement of the isometric tension. Preparations were allowed to equilibrate for 1 h at a resting tension of 2 g for rabbit aortas and 1 g for rat aortas with changes of the buffer every 15 min. Then the rings were stimulated by exposure to 90 mM KCl (3 times) with intervening washings.
(§2) Rat aorta. After equilibration, rat aortas were precontracted with KCl (90 mM) and, when the contraction was stable, a cumulative concentration-response curve to acetylcholine (ACh, 0.01-100 μM) was added. After washout, the rings were precontracted again with KCl (90 mM). When a steady-state level of contraction was obtained, a cumulative concentration-response curve to the tested compounds (0.01-100 μM) was obtained.
(§3) Data analysis. Results are given as mean±SEM. Vascular responses are expressed as percentage relaxation and plotted vs concentration. The sensitivity of isolated aorta to different vasodilators is expressed as the concentration that elicited 50% of the maximal responses (EC50). Responses are quantified in terms of EC50 and Emax (maximal vasodilating effect) values, obtained from the concentration-response curve by nonlinear curve fitting, using GraphPad software.
Tolerance to nitrate was further investigated assessing the vascular effects of Compound (6) following repeated treatment compared with 5-ISMN. The vascular response to the compound itself was assessed on isolated aortas from rats orally treated for 5 days with Compound (6) (100 mg/kg). The vascular response was performed as described in Example 6.
Vascular responses were performed 1 h (ISMN) or 3 h (Compound (6)) after the last administration, the concentrations of tested compound that elicited the 50% of the maximal responses (EC50) are shown in Table 4.

[3] = test system: endothelial-dependent vasodilation of rat aortas; test: Endothelial dysfunction evaluation, vascular response to acetylcholine; assay type: cell-based; details: 5-ISMN 30 mg/kg; for Emax at 30 mg/kg: Rattus norvegicus, read-out: % relaxation (Emax), response to acetylcholine
Protocol: as §1, §2, §3
Endothelial-dependent vasodilation (vascular response to acetylcholine, ACh) was assessed following 5-day treatment with Compound (6) (100 mg/kg) or 5-ISMN (30 mg/kg). A relaxant response to ACh indicated the presence of a functional endothelium. The vascular response was performed as described in Example 6.

[4] = test system: hypertonic saline-induced IOP increase in rabbits; test: IOP lowering activity in hypertonic saline-induced IOP increase in rabbits; assay type: in vivo, New Zealand White rabbits
Source text: Intraocular pressure (IOP) lowering activity in hypertonic saline-induced IOP increase in rabbits.
This animal model of elevated IOP was used for assessing the intraocular pressure (IOP) lowering activities of some compounds of the invention, timolol, dorzolamide and 5-isosorbide mononitrate.
• compounds (6), (20) and (25) • timolol and dorzolamide that are drugs commonly used for the treatment of glaucoma and ocular hypertension. • Isosorbide mononitrate (5-ISMN) that is a commonly used nitric oxide donor drug.
(§4) Timolol, dorzolamide and 5-ISMN were tested as reference compounds. Adults male New Zealand White rabbits weighting 1.8-2.0 Kg were used in the experiments.
IOP was measured using a Tono-Pen XL prior to hypertonic saline injection (basal) and at 30, 60, 120 and 240 min thereafter. Vehicle (5% cremophor-EL; 0.3% DMSO; 0.2 mg/ml BAK in PBS pH 6.0) and all the tested compounds dissolved in the vehicle were instilled as eye drops immediately after hypertonic saline injection. Eyes were randomly assigned to different treatment groups. Vehicle and the tested compounds were directly instilled into the conjunctiva pocket at the desired doses. One drop of 0.4% oxybuprocaine hydrochloride (Novesine, Sandoz) was instilled in each eye immediately before each set of pressure measurements.
Results are reported in Table 6, the ocular hypotensive activities of the tested compounds are expressed as IOP change at 60 and 120 minutes after topical administration versus vehicle and versus the basal IOP.

[5] = test system: rat L-NAME-induced hypertension; test: Systolic blood pressure in rat L-NAME-induced hypertension, single oral dose; assay type: in vivo; details: for Delta vs basal (mmHg), systolic blood pressure: 5-ISMN 30 mg/kg oral
Protocol: To assess the in vivo NO-dependent activity, Compound (6) was evaluated for systolic blood pressure (SBP) reduction efficacy in a rat model of NO-deprivation induced by L-NAME and compared with 5-ISMN.
(§5) Fasted male SD rats (250-300 g, n=3-5 per group), obtained from Harlan Italy (Correzzana, Milan, Italy) were orally treated with tested compounds or vehicle (DMSO:Methocel 1% 2/98 v/v) in a total volume of 4 ml/kg by gavage. At each time point (1, 3, 6 and 24 h) animals were deeply anesthetized with Zoletil® 100 (3 mg/kg), given intramuscularly. Thereafter, a pressure catheter (Samba Sensors, Harvard Apparatus, UK) was introduced into the common carotid artery for central blood pressure measurement. Pressure transducer was connected to a personal computer, in order to allow real time monitor of the pressure tracing. After 10 minutes of basal recording, L-NAME (50 mg/kg) was administered intraperitoneally and the effect on SBP monitored. When the SBP stabilized (5 minutes without variations) the recording was stopped. To further confirm that functional activity was NO-dependent, at each time point blood ^15N-nitrite levels were measured following the procedure described in Example 12.

[6] = test system: ocular normotensive New Zealand rabbits; test: IOP lowering activity in ocular normotensive New Zealand rabbits; assay type: in vivo, New Zealand White rabbits
Protocol: Intraocular pressure (IOP) lowering activity in ocular normotensive New Zealand rabbits.
• compound (6) • timolol that is a drug commonly used for the treatment of glaucoma and ocular hypertension. • Isosorbide mononitrate (5-ISMN) that is a commonly used nitric oxide donor drug.
as §4
IOP was measured using a pneumatonometer 30 CLASSIC™ before topical application (basal) and a different time point (30, 60, 120, 240 and 300 min) thereafter. Vehicle (5% cremophor-EL; 0.3% DMSO; 0.2 mg/ml BAK in PBS pH 6.0) or tested compounds dissolved in the vehicle were instilled as eye drops into the conjunctiva pocket. Eyes were randomly assigned to different treatment groups. One drop of 0.4% oxybuprocaine hydrochloride (Novesine, Sandoz) was instilled in each eye immediately before each set of pressure measurements.
The test results are reported in Table 7, the ocular hypotensive activity is expressed as IOP changes at 30, 60, 120 and 300 minutes after topical administration versus vehicle and versus IOP at basal.

[7] = test system: rat L-NAME-induced hypertension; test: In vivo tolerance evaluation, L-NAME-induced hypertension after 5-day oral treatment; details: 5-ISMN 30 mg/kg; for Delta vs basal (mmHg): peak effect 1 hour
Protocol: as §5
To investigate whether the compound (6) induced nitrate tolerance, as observed for most of the drugs belonging to the nitrate class, the L-NAME-induced hypertension rat model described in Example 7 was performed following a repeated oral treatment. Rats were orally treated for 5 days with vehicle, compound (6) (100 mg/kg) or 5-ISMN (30 mg/kg). […] The experiments were performed at the peak effect (1 hour for 5-ISMN and 3 hours for Compound (6)), results are reported in Table 3.

[8] = test system: lipidic peroxidation of membrane lipids in rat hepatocytes (hepatic microsomal membranes); details: Method B; from Chegaev et al.; read-out: Antioxidant activity IC50 μM (CL 95%); cited from earlier work
[9] = 60 min after topical administration
[10] = 120 min after topical administration
[11] = 30 min after topical administration
[12] = 300 min after topical administration
[13] = Method A (ADP-FeCl3 and NADPH), inhibition of TBARS production after 30 min

O=C(O)/C=C/c1ccc(O)c(O)c1 [Caffeic acid]
IC50 ([1]; Method B (2.5 μM FeSO4)): 33 µM

O=[N+]([O-])O[C@@H]1CO[C@H]2[C@@H]1OC[C@@H]2O [Compound 5-ISMN, isosorbide-5-mononitrate]
vascular sensitivity of aortas of treated animals to the compound itself versus vehicle/control arteries ([2]; 5-day oral treatment, 5-ISMN 30 mg/kg, Compound (6) 100 mg/kg): showed a reduced vascular response | EC50 at 30 mg/kg ([2]; 1 h): 20 ± 0.6 µM | EC50 at 30 mg/kg [2]: 127 ± 48 µM | effect on endothelial-dependent vasorelaxation (response to ACh) ([3]; 5-day treatment, Compound (6) 100 mg/kg): caused a reduced response to Ach | Emax at 30 mg/kg ([3]; 120 h, repeated (5-day treatment)): 78.2 ± 9.2% | Emax at 30 mg/kg ([3]; acute): 92.7 ± 4.3% | ΔΔ (mmHg), IOP change versus vehicle and versus basal IOP [4, 9]: −0.7 ± 2.9 mmHg | ΔΔ (mmHg), IOP change versus vehicle and versus basal IOP [4, 10]: −6.6 ± 1.8 mmHg | Delta vs basal (mmHg), systolic blood pressure ([5]; 1 hour): 10.5 ± 6.1 mmHg | Delta vs basal (mmHg), systolic blood pressure ([5]; 3 hours): 6.5 ± 2.4 mmHg | Delta vs basal (mmHg), systolic blood pressure ([5]; 6 hours): 51.2 ± 5.7 mmHg | Delta vs basal (mmHg), systolic blood pressure ([5]; 24 hours): 83 ± 9 mmHg | time over which L-NAME induced hypertension was counteracted after treatment ([5]; single oral administration, 5-ISMN 30 mg/kg, Compound (6) 100 mg/kg): 3 h | ΔΔ (mmHg), IOP change versus vehicle and versus IOP at basal [6, 11]: −1.5 ± 0.3 mmHg | ΔΔ (mmHg), IOP change versus vehicle and versus IOP at basal [6, 9]: −1.7 ± 0.4 mmHg | ΔΔ (mmHg), IOP change versus vehicle and versus IOP at basal [6, 10]: −0.6 ± 0.4 mmHg | ΔΔ (mmHg), IOP change versus vehicle and versus IOP at basal [6, 12]: −0.8 ± 0.4 mmHg | efficacy in preventing L-NAME-induced hypertension after 5-day oral treatment ([7]; compound (6) 100 mg/kg): did not maintain its efficacy | Delta vs basal (mmHg) ([7]; acute): 10.5 ± 6.1 mmHg | Delta vs basal (mmHg) ([7]; repeated (5 days oral)): 88 ± 11.5 mmHg

COC1=C(OC)C(=O)C(CCCOCCO[N+](=O)[O-])=C(C)C1=O [Compound (20), 2-(3-(4,5-dimethoxy-2-methyl-3,6-dioxocyclohexa-1,4-dienyl)propoxy)ethyl nitrate]
ΔΔ (mmHg), IOP change versus vehicle and versus basal IOP [4, 9]: −18.9 ± 2.4 mmHg | ΔΔ (mmHg), IOP change versus vehicle and versus basal IOP [4, 10]: −9.1 ± 1.6 mmHg

CC1=C(CCCCCCO[N+](=O)[O-])C(=O)c2ccccc2C1=O [Compound (23), 6-(3-methyl-1,4-dioxo-1,4-dihydronaphthalen-2-yl) hexyl nitrate]
IC50 [1, 13]: 1.4 µM

CC1=C(CCCOCCCO[N+](=O)[O-])C(=O)c2ccccc2C1=O [Compound (25), 3-(3-(3-methyl-1,4-dioxo-1,4-dihydronaphthalen-2-yl)propoxy)propyl nitrate]
ΔΔ (mmHg), IOP change versus vehicle and versus basal IOP [4, 9]: −11.5 ± 2.8 mmHg | ΔΔ (mmHg), IOP change versus vehicle and versus basal IOP [4, 10]: −10.2 ± 1.3 mmHg

CCN[C@H]1C[C@H](C)S(=O)(=O)c2sc(S(N)(=O)=O)cc21 [Dorzolamide, dorzolamide]
ΔΔ (mmHg), IOP change versus vehicle and versus basal IOP [4, 9]: −6.9 ± 2.1 mmHg | ΔΔ (mmHg), IOP change versus vehicle and versus basal IOP [4, 10]: −6.7 ± 1.7 mmHg

CC1=NN(c2ccccc2)C(=O)C1 [Edavarone]
IC50 [8]: 17 µM

COC1=C(OC)C(=O)C(CCCCCCCCCCO)=C(C)C1=O [Idebenone]
IC50 [1, 13]: 1.6 µM

COc1ccc2[nH]cc(CCNC(C)=O)c2c1 [Melatonin]
IC50 [8]: 476 µM

CC(C)(C)NC[C@H](O)COc1nsnc1N1CCOCC1 [Timolol, timolol]
ΔΔ (mmHg), IOP change versus vehicle and versus basal IOP [4, 9]: −5.7 ± 1.4 mmHg | ΔΔ (mmHg), IOP change versus vehicle and versus basal IOP [4, 10]: −8.4 ± 1.2 mmHg | ΔΔ (mmHg), IOP change versus vehicle and versus IOP at basal [6, 11]: −0.4 ± 0.4 mmHg | ΔΔ (mmHg), IOP change versus vehicle and versus IOP at basal [6, 9]: −0.7 ± 0.4 mmHg | ΔΔ (mmHg), IOP change versus vehicle and versus IOP at basal [6, 10]: −0.9 ± 0.4 mmHg | ΔΔ (mmHg), IOP change versus vehicle and versus IOP at basal [6, 12]: −0.05 ± 0.4 mmHg

— patent US9446015B2, “Quinone based nitric oxide donating compounds for ophthalmic use” (NICOX SCIENCE IRELAND, priority 2012, dated 2016)
